Measurements as given in patent publication US6706663B2, “Herbicidal 3-heterocyclic substituted benzisothiazole and benzisoxazole compounds” (Wyeth, priority 2000, dated 2004).

How the values were obtained:
[1] = tested on: IPOHE (Ipomoea hederacea); assay: Preemergence herbicidal evaluation; type: in vivo, (L.) Jacq.; conditions: rated 4-5 weeks after treatment
GALAP (Galium aparine) [2] = assay: Preemergence herbicidal evaluation; type: in vivo; conditions: rated 4-5 weeks after treatment
In short: (§1)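 Applied before emergence as an aqueous acetone spray over seeded soil. Read-out: 0–9 visual rating covering plant stand, vigor, size, chlorosis, malformation and overall appearance compared with control, taken 4–5 weeks after spraying.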

[3] = tested on: SAGPY (Sagittaria pygmaea); assay: Flooded paddy, preemergence weed control; type: in vivo, L.; conditions: rated 3-4 weeks after treatment, 0-9 rating scale
In short: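 Seeds or propagules were planted in the top 0.5 cm of silt loam soil and kept flooded 1.5–3 cm above the surface throughout, then held in the greenhouse. Injury was rated visually on a 0–9 scale against untreated controls, covering stand, vigor, malformation, size and chlorosis.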

ZEAMX (Corn, Field) = assay: Postemergence herbicidal evaluation; type: in vivo, Zea mays, L.; conditions: postemergence
In short: (§2)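 Seedlings grown about two weeks in flats, sprayed, then kept under standard greenhouse care. Rated visually 4–5 weeks after treatment on a 0–9 scale (stand, vigour, malformation, size, chlorosis, overall appearance) relative to untreated control; repeat tests averaged.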

GALAP (Galium aparine) [4] = assay: Postemergence herbicidal evaluation; type: in vivo; conditions: postemergence
In short: as §2

[5] = tested on: ECHCG (Echinochloa crus-galli); assay: Postemergence herbicidal evaluation; type: in vivo, (L.) Beau; conditions: postemergence
In short: as §2

[6] = tested on: GLXMAW (Soybean, Williams); assay: Postemergence herbicidal evaluation; type: in vivo, Glycine max, (L.) Merr. cv Williams; conditions: postemergence
In short: as §2

ORYSAT (Rice, Tebonnet) [7] = assay: Preemergence herbicidal evaluation; type: in vivo, Oryza sativa, (L.) Tebonnet; conditions: rated 4-5 weeks after treatment
[8] = tested on: ABUTH (Abutilon theophrasti); assay: Postemergence herbicidal evaluation; type: in vivo, Medic.; conditions: postemergence
In short: as §2

[9] = tested on: TRZAWR (Wheat, Winter, cv Riband); assay: Preemergence herbicidal evaluation; type: in vivo, Triticum aestivum; conditions: rated 4-5 weeks after treatment
In short: as §1

[10] = tested on: AMBEL (Ambrosia artemisifolia); assay: Postemergence herbicidal evaluation; type: in vivo, L.; conditions: postemergence
In short: as §2

[11] = tested on: CHEAL (Chenopodium album); assay: Postemergence herbicidal evaluation; type: in vivo, L.; conditions: postemergence
In short: as §2

[12] = tested on: CASOB (Cassia obtusifolia); assay: Postemergence herbicidal evaluation; type: in vivo, L.; conditions: postemergence
In short: as §2

ORYSAT (Rice, Tebonnet) [13] = assay: Postemergence herbicidal evaluation; type: in vivo, Oryza sativa, (L.) Tebonnet; conditions: postemergence
In short: as §2

[14] = tested on: CYPSE (Cyperus serotinus); assay: Flooded paddy, preemergence weed control; type: in vivo, Rottb.; conditions: rated 3-4 weeks after treatment, 0-9 rating scale
In short: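 Herbicidal effect was scored visually on a 0–9 scale against an untreated control 3–4 weeks after treatment. Compounds were applied preemergence as 50/50 v/v aqueous/acetone mixtures into flood water (1.5–3 cm deep over silt loam), at roughly 0.0080 to 0.1250 kg/ha active ingredient.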

[15] = tested on: AMBEL (Ambrosia artemisifolia); assay: Preemergence herbicidal evaluation; type: in vivo, L.; conditions: rated 4-5 weeks after treatment
In short: as §1

[16] = tested on: CHEAL (Chenopodium album); assay: Preemergence herbicidal evaluation; type: in vivo, L.; conditions: rated 4-5 weeks after treatment
In short: as §1

[17] = tested on: CASOB (Cassia obtusifolia); assay: Preemergence herbicidal evaluation; type: in vivo, L.; conditions: rated 4-5 weeks after treatment
In short: as §1

[18] = tested on: ABUTH (Abutilon theophrasti); assay: Preemergence herbicidal evaluation; type: in vivo, Medic.; conditions: rated 4-5 weeks after treatment
ORYSAT (Rice, Tebonnet) [19] = assay: Flooded paddy, post-transplant rice tolerance; type: in vivo, Oryza sativa, (L.) Tebonnet; conditions: flooded paddy, post-transplant rice, rated 3-4 weeks after treatment, 0-9 rating scale
In short: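 Visual 0–9 injury rating against a control, covering stand, vigor, malformation, size, chlorosis and overall appearance. Treatment was post-transplant onto flooded containers (water 1.5–3 cm deep, silt loam) holding two ten-day-old cv. Tebonnet seedlings, maintained on greenhouse benches.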

Cn1c(C(F)(F)F)cc(=O)n(-c2ccc3snc(-c4nccs4)c3c2)c1=O [Compound 53, 1-methyl-3-[3-(2-thiazolyl)-1,2-benzisothiazol-5-yl]-6-(trifluoromethyl)uracil]
Preemergence herbicidal rating IPOHE ([1]; Rate 0.0620 kg/ha): 1.0 | Preemergence herbicidal rating IPOHE ([1]; Rate 0.1250 kg/ha): 3.0 | Preemergence herbicidal rating IPOHE ([1]; Rate 0.2500 kg/ha): 8.0 | Preemergence herbicidal rating GALAP (GALAP (Galium aparine) [2]; Rate 0.0620 kg/ha): 8.0 | Preemergence herbicidal rating GALAP (GALAP (Galium aparine) [2]; Rate 0.1250 kg/ha): 8.0 | Preemergence herbicidal rating GALAP (GALAP (Galium aparine) [2]; Rate 0.2500 kg/ha): 9.0 | herbicidal rating, SAGPY ([3]; rate 0.0080 kg/ha): 0.0 | herbicidal rating, SAGPY ([3]; rate 0.0320 kg/ha): 4.3 | herbicidal rating, SAGPY ([3]; rate 0.1250 kg/ha): 9.0 | ZEAMX herbicidal rating (ZEAMX (Corn, Field); rate 0.0320 kg/ha): 4.5 | ZEAMX herbicidal rating (ZEAMX (Corn, Field); rate 0.0620 kg/ha): 5.0 | ZEAMX herbicidal rating (ZEAMX (Corn, Field); rate 0.1250 kg/ha): 5.5 | GALAP herbicidal rating (GALAP (Galium aparine) [4]; rate 0.0320 kg/ha): 2.5 | GALAP herbicidal rating (GALAP (Galium aparine) [4]; rate 0.0620 kg/ha): 3.0 | GALAP herbicidal rating (GALAP (Galium aparine) [4]; rate 0.1250 kg/ha): 7.0 | ECHCG herbicidal rating ([5]; rate 0.0320 kg/ha): 1.0 | ECHCG herbicidal rating ([5]; rate 0.0620 kg/ha): 2.0 | ECHCG herbicidal rating ([5]; rate 0.1250 kg/ha): 1.0 | GLXMAW herbicidal rating ([6]; rate 0.0320 kg/ha): 6.8 | GLXMAW herbicidal rating ([6]; rate 0.0620 kg/ha): 8.3 | GLXMAW herbicidal rating ([6]; rate 0.1250 kg/ha): 8.0 | Preemergence herbicidal rating ORYSAT (ORYSAT (Rice, Tebonnet) [7]; Rate 0.0620 kg/ha): 1.0 | Preemergence herbicidal rating ORYSAT (ORYSAT (Rice, Tebonnet) [7]; Rate 0.1250 kg/ha): 3.0 | Preemergence herbicidal rating ORYSAT (ORYSAT (Rice, Tebonnet) [7]; Rate 0.2500 kg/ha): 5.0 | ABUTH herbicidal rating ([8]; rate 0.0320 kg/ha): 9.0 | ABUTH herbicidal rating ([8]; rate 0.0620 kg/ha): 9.0 | ABUTH herbicidal rating ([8]; rate 0.1250 kg/ha): 9.0 | Preemergence herbicidal rating TRZAWR ([9]; Rate 0.0620 kg/ha): 1.0 | Preemergence herbicidal rating TRZAWR ([9]; Rate 0.1250 kg/ha): 3.5 | Preemergence herbicidal rating TRZAWR ([9]; Rate 0.2500 kg/ha): 5.0 | AMBEL herbicidal rating ([10]; rate 0.0320 kg/ha): 6.5 | AMBEL herbicidal rating ([10]; rate 0.0620 kg/ha): 9.0 | AMBEL herbicidal rating ([10]; rate 0.1250 kg/ha): 9.0 | CHEAL herbicidal rating ([11]; rate 0.0320 kg/ha): 4.5 | CHEAL herbicidal rating ([11]; rate 0.0620 kg/ha): 7.0 | CHEAL herbicidal rating ([11]; rate 0.1250 kg/ha): 9.0 | CASOB herbicidal rating ([12]; rate 0.0320 kg/ha): 2.0 | CASOB herbicidal rating ([12]; rate 0.0620 kg/ha): 4.0 | CASOB herbicidal rating ([12]; rate 0.1250 kg/ha): 3.0 | ORYSAT herbicidal rating (ORYSAT (Rice, Tebonnet) [13]; rate 0.0320 kg/ha): 3.0 | ORYSAT herbicidal rating (ORYSAT (Rice, Tebonnet) [13]; rate 0.0620 kg/ha): 3.5 | ORYSAT herbicidal rating (ORYSAT (Rice, Tebonnet) [13]; rate 0.1250 kg/ha): 3.0 | herbicidal rating, CYPSE ([14]; rate 0.0320 kg/ha): 3.0 | herbicidal rating, CYPSE ([14]; rate 0.1250 kg/ha): 9.0 | Preemergence herbicidal rating AMBEL ([15]; Rate 0.0620 kg/ha): 4.0 | Preemergence herbicidal rating AMBEL ([15]; Rate 0.1250 kg/ha): 8.0 | Preemergence herbicidal rating AMBEL ([15]; Rate 0.2500 kg/ha): 8.5 | Preemergence herbicidal rating CHEAL ([16]; Rate 0.0620 kg/ha): 9.0 | Preemergence herbicidal rating CHEAL ([16]; Rate 0.1250 kg/ha): 9.0 | Preemergence herbicidal rating CHEAL ([16]; Rate 0.2500 kg/ha): 9.0 | Preemergence herbicidal rating CASOB ([17]; Rate 0.0620 kg/ha): 0.0 | Preemergence herbicidal rating CASOB ([17]; Rate 0.1250 kg/ha): 1.0 | Preemergence herbicidal rating CASOB ([17]; Rate 0.2500 kg/ha): 3.0 | Preemergence herbicidal rating ABUTH ([18]; Rate 0.0620 kg/ha): 5.0 | Preemergence herbicidal rating ABUTH ([18]; Rate 0.1250 kg/ha): 7.5 | Preemergence herbicidal rating ABUTH ([18]; Rate 0.2500 kg/ha): 9.0 | herbicidal rating, ORYSAT (rice tolerance) (ORYSAT (Rice, Tebonnet) [19]; rate 0.0080 kg/ha): 0.5 | herbicidal rating, ORYSAT (rice tolerance) (ORYSAT (Rice, Tebonnet) [19]; rate 0.0320 kg/ha): 2.7 | herbicidal rating, ORYSAT (rice tolerance) (ORYSAT (Rice, Tebonnet) [19]; rate 0.1250 kg/ha): 5.0

Cn1c(C(F)(F)F)cc(=O)n(-c2cc3c(C4OCCO4)nsc3cc2F)c1=O [Compound 61, 3-[3-(1,3-dioxolan-2-yl)-6-fluoro-1,2-benzisothiazol-5-yl]-1-methyl-6-(trifluoromethyl)uracil]
Preemergence herbicidal rating IPOHE ([1]; Rate 0.0002 kg/ha): 0.0 | Preemergence herbicidal rating IPOHE ([1]; Rate 0.0160 kg/ha): 9.0 | Preemergence herbicidal rating IPOHE ([1]; Rate 0.0320 kg/ha): 9.0 | Preemergence herbicidal rating GALAP (GALAP (Galium aparine) [2]; Rate 0.0002 kg/ha): 0.0 | Preemergence herbicidal rating GALAP (GALAP (Galium aparine) [2]; Rate 0.0160 kg/ha): 8.5 | Preemergence herbicidal rating GALAP (GALAP (Galium aparine) [2]; Rate 0.0320 kg/ha): 9.0 | herbicidal rating, SAGPY ([3]; rate 0.0080 kg/ha): 3.0 | herbicidal rating, SAGPY ([3]; rate 0.0320 kg/ha): 8.3 | herbicidal rating, SAGPY ([3]; rate 0.1250 kg/ha): 9.0 | ZEAMX herbicidal rating (ZEAMX (Corn, Field); rate 0.0320 kg/ha): 5.5 | ZEAMX herbicidal rating (ZEAMX (Corn, Field); rate 0.0620 kg/ha): 5.5 | GALAP herbicidal rating (GALAP (Galium aparine) [4]; rate 0.0320 kg/ha): 9.0 | ECHCG herbicidal rating ([5]; rate 0.0320 kg/ha): 5.0 | ECHCG herbicidal rating ([5]; rate 0.0620 kg/ha): 3.0 | GLXMAW herbicidal rating ([6]; rate 0.0320 kg/ha): 9.0 | Preemergence herbicidal rating ORYSAT (ORYSAT (Rice, Tebonnet) [7]; Rate 0.0002 kg/ha): 0.0 | Preemergence herbicidal rating ORYSAT (ORYSAT (Rice, Tebonnet) [7]; Rate 0.0160 kg/ha): 8.7 | Preemergence herbicidal rating ORYSAT (ORYSAT (Rice, Tebonnet) [7]; Rate 0.0320 kg/ha): 9.0 | ABUTH herbicidal rating ([8]; rate 0.0320 kg/ha): 9.0 | ABUTH herbicidal rating ([8]; rate 0.0620 kg/ha): 9.0 | Preemergence herbicidal rating TRZAWR ([9]; Rate 0.0002 kg/ha): 0.0 | Preemergence herbicidal rating TRZAWR ([9]; Rate 0.0160 kg/ha): 8.5 | Preemergence herbicidal rating TRZAWR ([9]; Rate 0.0320 kg/ha): 9.0 | AMBEL herbicidal rating ([10]; rate 0.0320 kg/ha): 9.0 | AMBEL herbicidal rating ([10]; rate 0.0620 kg/ha): 9.0 | CHEAL herbicidal rating ([11]; rate 0.0320 kg/ha): 9.0 | CHEAL herbicidal rating ([11]; rate 0.0620 kg/ha): 9.0 | CASOB herbicidal rating ([12]; rate 0.0320 kg/ha): 9.0 | ORYSAT herbicidal rating (ORYSAT (Rice, Tebonnet) [13]; rate 0.0320 kg/ha): 5.5 | herbicidal rating, CYPSE ([14]; rate 0.0320 kg/ha): 9.0 | herbicidal rating, CYPSE ([14]; rate 0.1250 kg/ha): 9.0 | Preemergence herbicidal rating AMBEL ([15]; Rate 0.0002 kg/ha): 0.0 | Preemergence herbicidal rating AMBEL ([15]; Rate 0.0160 kg/ha): 9.0 | Preemergence herbicidal rating AMBEL ([15]; Rate 0.0320 kg/ha): 9.0 | Preemergence herbicidal rating CHEAL ([16]; Rate 0.0002 kg/ha): 2.0 | Preemergence herbicidal rating CHEAL ([16]; Rate 0.0160 kg/ha): 9.0 | Preemergence herbicidal rating CHEAL ([16]; Rate 0.0320 kg/ha): 9.0 | Preemergence herbicidal rating CASOB ([17]; Rate 0.0002 kg/ha): 0.0 | Preemergence herbicidal rating CASOB ([17]; Rate 0.0160 kg/ha): 7.3 | Preemergence herbicidal rating CASOB ([17]; Rate 0.0320 kg/ha): 7.0 | Preemergence herbicidal rating ABUTH ([18]; Rate 0.0002 kg/ha): 0.0 | Preemergence herbicidal rating ABUTH ([18]; Rate 0.0160 kg/ha): 9.0 | Preemergence herbicidal rating ABUTH ([18]; Rate 0.0320 kg/ha): 9.0 | herbicidal rating, ORYSAT (rice tolerance) (ORYSAT (Rice, Tebonnet) [19]; rate 0.0080 kg/ha): 8.0 | herbicidal rating, ORYSAT (rice tolerance) (ORYSAT (Rice, Tebonnet) [19]; rate 0.0320 kg/ha): 9.0 | herbicidal rating, ORYSAT (rice tolerance) (ORYSAT (Rice, Tebonnet) [19]; rate 0.1250 kg/ha): 9.0
